Data on seven compounds can be found in US20120037840A1, “USE OF MAGNETIC NANOPARTICLES TO REMOVE ENVIRONMENTAL CONTAMINANTS” (priority 2008, published 2012).

Values after ≈ are worked out from the molar mass of the structure shown.

For data set [1] the following is noted: cited from earlier work; for Kow: octanol-water coefficient; for log10(Kow): organic solvents used for extraction of HA-stabilized CNTs (FIG. 9).
For data set [2] the following is noted: water solubility of the HOC; cited from earlier work.
Data set [3] can be described thus: Sorption kinetics of HOCs onto Mag-PCMAs from contaminated water. It is filed as physicochemical. Particulars: 20 mg/L HA; initial diuron 34.3 μmol/L. The procedure:
Sorption kinetics of HOCs onto Mag-PCMAs from contaminated water. The HOC sorption kinetics onto Mag-PCMAs were determined by batch experiments. Aliquots (50 mg) of Mag-PCMAs were mixed in 10 ml glass tubes with 10.0 ml of an aqueous solution of each HOC. […] The caps of the tubes were lined with PTFE. The tubes were shaken at 60 rpm at 22±2° C. continuously. At the end of 5, 10, 20, 30, 45, 60, 90, 120, 180, 200, 360, 720, and 1440 minutes, one tube was taken out. A magnet was then used to separate the Mag-PCMAs from the aqueous phase. […] 1.0 ml of the supernatant was taken for HOC analysis on a high performance liquid chromatography (HPLC). The amount of HOC sorbed was calculated as the difference between the initial and final HOC mass in aqueous phase. To order to investigate the effect of the presence of HA on HOC sorption kinetics, diuron sorption kinetics were determined in the presence of 20 mg/L HA (organic carbon content), an environmental relevant HA concentration.^29 The initial diuron concentration was 34.3 μmol/L.

The conditions of data set [4]: benzalkonium chloride concentration of 6.0 g/L; cited from earlier work.

Regarding `CCNc1nc(Cl)nc(NC(C)C)n1` [Atrazine, 2-chloro-4-ethylamino-6-isopropylamino-1,3,5-triazine], the Kow in data set [1] is 416.

Turning to `c1ccc(-c2ccccc2)cc1` [Biphenyl, biphenyl], in data set [1], the Kow is given as 7079. The Solubility in data set [2] is given as 44 mg/L (≈ 285 µM).

As to `CN(C)C(=O)Nc1ccc(Cl)c(Cl)c1` [Diuron, 3-(3,4-dichlorofenyl)-1,1-dimethylurea], in data set [1], the Kow is 660. The “effect of presence of HA on sorption kinetics” value in data set [3] is reported as “no significant effect”. Further, the Solubility in data set [2] was 180 mg/L (≈ 772 µM). The “solubility of diuron relative to that in absence of the surfactant” value in data set [4] was “about 20 times”.

On to `c1ccc2ccccc2c1` [Naphthalene, naphthalene], for which the Solubility in data set [2] is listed as 225 mg/L (≈ 1760 µM).

With `ClC=C(Cl)Cl` [TCE, trichloroethene], the “log10(Kow)” value in data set [1] was 2.33.

`CCCCCC` [hexane]: the “log10(Kow)” value in data set [1] is reported as 4.00.

For the compound `CCCCCCCC` [octane], the “log10(Kow)” value in data set [1] is given as 5.18.
